Data set [1] in a line: RP HPLC on octadecyl (C-18/RP-18) column, buffer-MeOH pH 7.4, log kw by extrapolation. The class given is physicochemical. The following applies: C18 stationary phase; for log kw C-18: MeOH-buffer pH 7.4, extrapolated intercept; for S: slope of log k vs MeOH content, pH 7.4. An excerpt:
(§1) The retention factors of considered compounds were investigated using five different bonded stationary phases: octadecyl (RP-18), octyl (RP-8), cholesterol (Chol), phosphatidylcholine (IAM), and biphenyl (BPh). Water buffer–methanol mobile phases with pH 7.4 were used. The content of MeOH was varying and it depended on the type of compound and the stationary phase.
For the tested systems, linear relationships were obtained between the retention coefficient log k and the content of MeOH (%) in the mobile phase expressed by the Snyder–Soczewiński equation:log k = log kw + S (% organic modifier)(2) where: log kw—the intercept; S—the slope of regression curve.
Log kw values were estimated by the extrapolation method. Log kw and S parameters are presented in Figure 3, Table 2, and Tables S1–S5 in the Supplementary Materials. These parameters obtained by C-18, C-8, and IAM chromatography are commonly used as lipophilicity descriptors.
(§2) HPLC measurements for C-18, C-8, IAM, Chol, and BPh phases were carried out using a liquid chromatograph Knauer (Knauer, Berlin, Germany) with a single pump working in isocratic mode, a 20 µL simple injection valve, and a UV–visible detector (Knauer, Berlin, Germany) working at 280 nm at room temperature. The retention time of an unretained solute (t0) was determined by the injection of a small amount of citric acid dissolved in water. The mobile phase flow rate was 1 mL/min (0.35 mL/min for Chol). HPLC columns: C18—Eurosil Bioselect 300 × 4 mm, 5 μm; C8—Waters. Symetry 150 × 4.6 mm, 5 μm, 100 Ǻ; IAM—Rexchrom IAM.PC.DD2 100 × 4.6 mm, 12 μm; Chol—Cogent 4 UDC Cholesterol 150 × 2.1 mm, 4 μm; BPh—Kinetex Biphenyl 150 × 4.6 mm, 5 μm were applied.
(§3) Mobile phase for RP-18, RP-8, Chol, and BPh chromatography was composed using 20 mM acetic buffer/MeOH with respective MeOH concentration ranges (volume fractions: C18—from 0.5 to 0.99; C8—from 0.5 to 0.9; IAM—from 0.15 to 0.5; Chol: from 0.45 to 0.9; BPh: from 0.4 to 0.99) to obtain pH = 7.4. In the case of IAM chromatography, phosphate buffer was used. At least five consecutive retention times for five concentrations per every investigated compound for every chromatographic system were measured. Log k parameter was calculated as log k = log (tr−t0/t0), where tr = the retention time of the analyte; t0 = the retention time of an unretained compound.

Data set [2] in a line: Log D(7.4) determination from RP-18 measurements using a standard curve. The following applies: C18 (RP-18) HPLC column with MeOH-water mobile phase; calculated from standard curve (Equation 3) and log kw C18, pH 7.4. It is filed as physicochemical. The text has this:
C-18 chromatography was used to determine the distribution coefficient log D(7.4) of the tested compounds using a standard curve. It was constructed for the reference compounds with known experimental log D(7.4) values and studied chromatographically under the same conditions as the analyzed compounds [44] (Table 4). The obtained log kw values were plotted against the log D(7.4) based on BioLoom Database values taken from Andres et al. (Table S6 in the Supplementary Materials). […] In the case of analogues 7 and 14, these differences are the largest and they constitute about 17% and 13%, respectively (Table 4). This means that the obtained log kw values from the C18/MeOH-water (pH = 7.4) chromatographic system reflect the extraction values of log D(7.4) quite well. […] The analytical standards were purchased from Sigma Aldrich […], Darmstadt, Germany). The obtained log kw values from HPLC C-18 were plotted against the log D(7.4) based on BioLoom Database values taken from Andres et al. (Table S6 in the Supplementary Materials).

Data set [3] in a line: Comparison of retention (log kw) on RP-18, RP-8, Chol, IAM and BPh stationary phases. The conditions noted are these: for retention, in words: investigated stationary phases. The class given is physicochemical.
Text: as §1
The lowest log kw values can be observed for RP-18 and IAM stationary phases. For most compounds, log kw IAM values have similar values or are lower than those obtained for C18 stationary phase. […] On the octadecyl column the main contribution to retention comes from almost entirely hydrophobic interactions, when in the case of IAM phase there are additional mechanisms involved in interactions as ion pairing and hydrogen bonding. They can be either attractive or repulsive in nature. This depends on the structure of compound and pH.
as §2, §3

For data set [4] the following is noted: cited from earlier work.

Like-named read-outs stand apart in the source and are kept apart here.

One may read the chromatographic logD as lipophilicity estimated from chromatographic retention. Regarding `Oc1ccc(-c2nnc(-c3ccccc3)s2)c(O)c1` [Compound 1], in data set [1], the “log kw C-18” value was 2.537 and the S was −3.494. The chromatographic logD in data set [2] is 2.51.

Take `Cc1cccc(-c2nnc(-c3ccc(O)cc3O)s2)c1` [Compound 2]: in data set [1], the “log kw C-18” value is 3 and the S was −3.87. Also, the chromatographic logD in data set [2] is 3.13.

On to `Oc1ccc(-c2nnc(-c3ccccc3F)s2)c(O)c1` [Compound 3], for which, in data set [1], the “log kw C-18” value is listed as 3.002 and the S was −3.885. Besides, in data set [2], the chromatographic logD was 3.13.

In the case of `Oc1ccc(-c2nnc(-c3ccccc3Cl)s2)c(O)c1` [Compound 4], in data set [1], the “log kw C-18” value is recorded as 2.67 and the S is reported as −3.651. The chromatographic logD in data set [2] was 2.69.

As for `Oc1ccc(-c2nnc(-c3ccc(Cl)cc3Cl)s2)c(O)c1` [Compound 5], in data set [1], the “log kw C-18” value is listed as 3.678 and the S is recorded as −4.438. The chromatographic logD in data set [2] was 4.05.

As to `Oc1ccc(-c2nnc(-c3ccc(C(F)(F)F)cc3)s2)c(O)c1` [Compound 6], in data set [1], the “log kw C-18” value is recorded as 3.69 and the S was −4.696. Moreover, the chromatographic logD in data set [2] is 4.06. Further, the “retention, in words” value in data set [3] is on record as “strongest retained”.

For the molecule `Oc1ccc(-c2nnc(-c3ccc(O)c(O)c3)s2)c(O)c1` [Compound 7], in data set [1], the “log kw C-18” value was 1.907 and the S is −3.171. The chromatographic logD in data set [2] was 1.66. For the same molecule, the “retention / determined lipophilicity, in words” value in data set [3] (all investigated stationary phases except IAM) is “weakest retention”.

For `COc1cc(-c2nnc(-c3ccc(O)cc3O)s2)ccc1O` [Compound 8], in data set [1], the “log kw C-18” value was 2.545 and the S is listed as −3.785. The chromatographic logD in data set [2] was 2.52. The “retention, in words” value in data set [3] was “relatively low retention factor values”.

On to `O=[N+]([O-])c1cccc(-c2nnc(-c3ccc(O)cc3O)s2)c1` [Compound 9], for which, in data set [1], the “log kw C-18” value is reported as 2.512 and the S is given as −3.432. Besides, in data set [2], the chromatographic logD was 2.47. Also, the “retention, in words” value in data set [3] is “relatively low retention factor values”.

In the case of `Oc1cc(O)c(-c2nnc(-c3ccc(OC(F)(F)F)cc3)s2)cc1Cl` [Compound 10], in data set [1], the “log kw C-18” value is listed as 3.734 and the S is on record as −4.65. In addition, the chromatographic logD in data set [2] was 4.12. The “retention, in words” value in data set [3] is listed as “strongest retained”.

With `Oc1ccc(-c2nnc(Nc3ccccc3)s2)c(O)c1` [Compound 11], in data set [1], the “log kw C-18” value is 2.477 and the S is reported as −3.66. Further, the chromatographic logD in data set [2] is 2.42. In addition, the “retention, in words” value in data set [3] is recorded as “relatively low retention factor values”.

With `Cc1ccc(Nc2nnc(-c3ccc(O)cc3O)s2)cc1` [Compound 12], in data set [1], the “log kw C-18” value is 2.986 and the S is on record as −4.168. Further, in data set [2], the chromatographic logD is 3.11.

Turning to `Oc1cc(O)c(-c2nnc(Nc3ccc(F)cc3)s2)cc1Cl` [Compound 13], in data set [1], the “log kw C-18” value is given as 3.005 and the S is listed as −4.173. In data set [2], the chromatographic logD was 3.14.

For `CCc1cc(-c2nnc(Nc3ccc(Cl)cc3)s2)c(O)cc1O` [Compound 14], in data set [1], the “log kw C-18” value was 4.296 and the S is given as −5.335. In addition, in data set [2], the chromatographic logD was 4.88. Besides, the “retention, in words” value in data set [3] is “strongest retained”.

In the case of `CCOC(=O)c1ccc(Nc2nnc(-c3ccc(O)cc3O)s2)cc1` [Compound 15], in data set [1], the “log kw C-18” value is 3.238 and the S is −4.185. Further, the chromatographic logD in data set [2] is 3.45.

In the case of `Oc1ccc(-c2nnc(Nc3cccc4ccccc34)s2)c(O)c1` [Compound 16], in data set [1], the “log kw C-18” value is 3.059 and the S is on record as −3.931. For the same molecule, the chromatographic logD in data set [2] is 3.21.

As to `CCCCNc1nnc(-c2cc(Cl)c(O)cc2O)s1` [Compound 17], the “log kw C-18” value in data set [1] is 2.78. The chromatographic logD in data set [2] is 2.83.

For the molecule `Oc1ccc(-c2nnc(COc3ccc(OC(F)(F)F)cc3)s2)c(O)c1` [Compound 18], in data set [1], the “log kw C-18” value was 2.879 and the S was −3.883. Besides, the chromatographic logD in data set [2] is 2.97. Further, the “retention, in words” value in data set [3] is “strongest retained”.

For `Cn1c(=O)c2c(ncn2C)n(C)c1=O` [caffeine, reference compound], the “log kw C-18” value in data set [1] was 0.802.

For the molecule `O=C(CCCN1CCC(O)(c2ccc(Cl)cc2)CC1)c1ccc(F)cc1` [haloperidol, reference compound], the “log kw C-18” value in data set [1] is on record as 3.012. In data set [4] (standards used for calibration curve, BioLoom Database values taken from Andres et al. ref 44), the “log D(7.4) Bio Loom” value is 2.92.

On to `C[C@]12CCC(=O)C=C1CC[C@@H]1[C@@H]2[C@@H](O)C[C@@]2(C)[C@H]1CC[C@]2(O)C(=O)CO` [hydrocortisone, reference compound], for which the “log kw C-18” value in data set [1] is reported as 2.210.

As for `CC(=O)N1CCN(c2ccc(OCC3COC(Cn4ccnc4)(c4ccc(Cl)cc4Cl)O3)cc2)CC1` (stereo not shown) [ketoconazole, reference compound], the “log kw C-18” value in data set [1] is given as 3.370.

For `CCN(CC)CC(=O)Nc1c(C)cccc1C` [lidocaine, reference compound], the “log kw C-18” value in data set [1] is 2.079.

`c1ccc2ccccc2c1` [naphthalene, reference compound]: the “log kw C-18” value in data set [1] was 2.615. Moreover, in data set [4] (pH 7.4), the “log D(7.4) Bio Loom” value was 3.3.

As for `Cn1c(=O)c2[nH]cnc2n(C)c1=O` [theophylline, reference compound], in data set [1], the “log kw C-18” value is 0.380.

Source of the values: paper PMC12525849, “In Silico and RP HPLC Studies of Biologically Active 1,3,4-Thiadiazol-2-yl)-benzene-1,3-diols” (Molecules, 2025).
